This is an account of results in patent US6673795B2, “Pyrimidine, pyrazine and triazane derivatives” (Hoffmann-La Roche Inc., priority 2001, dated 2004).

Each structure is given as a SMILES string.

For one data set, the target named is T1, rat mGluR1a receptor (Rattus norvegicus, UniProt P23385).
T1 construct: expressed in transfected cells; host or cells: HEK 293 cells, transient transfection; membrane preparation
In words: Binding assay for the characterization of mGluR 1 antagonistic properties (tritiated radioligand displacement). The following applies: membranes of HEK 293 cells transiently transfected with rat mGluR1a; tritiated 1-ethyl-2-methyl-6-oxo-4-(1,1,2-tritritio-1,2,4,5-tetrahydro-benzo[d]azepin-3-yl)-1,6-dihydro-pyrimidine-5-carbonitrile at 3 nM; 1 hour at room temperature. Here is the method:
Binding Assay for the Characterization of mGluR 1 Antagonistic Properties
Binding assay with tritiated 1-ethyl-2-methyl-6-oxo-4-(1,1,2-tritritio-1,2,4,5-tetrahydro-benzo[d]azepin-3-yl)-1,6-dihydro-pyrimidine-5-carbonitrile: HEK 293 cells were transiently transfected with the rat mGluR^1 a receptor. The cells were collected and washed 3 times with PBS. The cell pellets were frozen at −80° C. Membranes were prepared from HEK 293 cells transfected with the rat mGluR^1 a receptor and used in the binding experiments at 10 μg proteins per assay after resuspension in a HEPES NaOH 20 mM, pH=7.4 binding buffer. 1-Ethyl-2-methyl-6-oxo-4-(1,1,2-tritritio-1,2,4,5-tetrahydro-benzo [d]azepin-3-yl)-1,6-dihydro-pyrimidine-5-carbonitrile (S.A 33.4 Ci/mmol) was used at 3 nM final concentration. The incubation with variable concentrations of potential inhibitors was performed for 1 hour at room temperature, the incubate was then filtered onto GF/B glass fiber filter preincubated 1 hour in PEI 0,1% and washed 3 times with 1 ml of cold binding buffer. The radioactivity retained on the unifilter 96 was counted using a Topcount β counter. After correction for non specific binding the data were normalized and the IC50 value calculated using a 4 parameters logistic equation which was fitted to the inhibition curve.
Background: Displacement assays read how much labelled ligand stays bound in the presence of the test substance.

T1 sequence (P23385 19-1199): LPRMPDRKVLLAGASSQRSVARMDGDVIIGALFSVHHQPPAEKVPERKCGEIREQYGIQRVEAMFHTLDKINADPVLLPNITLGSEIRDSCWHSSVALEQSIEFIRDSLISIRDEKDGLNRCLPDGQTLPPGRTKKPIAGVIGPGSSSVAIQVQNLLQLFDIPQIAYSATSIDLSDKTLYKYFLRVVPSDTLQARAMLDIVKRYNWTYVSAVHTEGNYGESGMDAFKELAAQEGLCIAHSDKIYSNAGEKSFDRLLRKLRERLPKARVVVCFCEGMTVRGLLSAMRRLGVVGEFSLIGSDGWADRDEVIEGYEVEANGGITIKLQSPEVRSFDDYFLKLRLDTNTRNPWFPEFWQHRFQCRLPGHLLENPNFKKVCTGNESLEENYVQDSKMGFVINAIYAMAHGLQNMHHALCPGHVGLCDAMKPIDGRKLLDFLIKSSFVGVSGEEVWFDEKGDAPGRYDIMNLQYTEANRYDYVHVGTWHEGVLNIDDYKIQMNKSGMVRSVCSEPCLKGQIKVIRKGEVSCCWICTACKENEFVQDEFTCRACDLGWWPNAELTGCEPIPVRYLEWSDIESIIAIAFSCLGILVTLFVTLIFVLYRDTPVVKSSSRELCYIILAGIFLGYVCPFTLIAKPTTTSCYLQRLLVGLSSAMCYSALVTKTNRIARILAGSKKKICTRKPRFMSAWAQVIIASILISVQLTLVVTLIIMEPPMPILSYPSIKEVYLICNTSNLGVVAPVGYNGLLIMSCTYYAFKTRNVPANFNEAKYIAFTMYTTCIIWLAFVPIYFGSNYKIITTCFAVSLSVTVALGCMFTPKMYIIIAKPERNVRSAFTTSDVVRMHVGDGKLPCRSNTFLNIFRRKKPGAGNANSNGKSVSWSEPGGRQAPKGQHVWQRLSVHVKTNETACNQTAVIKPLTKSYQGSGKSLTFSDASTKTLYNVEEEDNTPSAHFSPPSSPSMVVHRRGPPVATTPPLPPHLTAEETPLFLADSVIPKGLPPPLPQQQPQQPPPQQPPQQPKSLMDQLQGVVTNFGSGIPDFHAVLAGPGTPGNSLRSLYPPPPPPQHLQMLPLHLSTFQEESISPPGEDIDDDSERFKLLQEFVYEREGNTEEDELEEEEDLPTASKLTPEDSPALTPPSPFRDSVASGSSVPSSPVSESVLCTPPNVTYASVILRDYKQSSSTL

As a reminder, the melting point is the temperature, or range, at which the solid turns liquid. On to `Cc1nc(N2CCC(O)(c3ccccc3)CC2)c([N+](=O)[O-])c(=O)[nH]1` [Example 3, 6-(4-Hydroxy-4-phenyl-piperidin-1-yl)-2-methyl-5-nitro-3H-pyrimidin-4-one], for which the melting point is > 250 °C (dec.).

Take `Cc1nc(N2CCN(c3ccccc3)CC2)c([N+](=O)[O-])c(=O)[nH]1` [Example 4, 2-Methyl-5-nitro-6-(4-phenyl-piperazin-1-yl)-3H-pyrimidin-4-one]: the melting point was > 250 °C (dec.).

With `Cc1nc(N2CC=C(c3ccccc3)CC2)c([N+](=O)[O-])c(=O)[nH]1` [Example 6, 2-Methyl-5-nitro-6-(4-phenyl-3,6-dihydro-2H-pyridin-1-yl)-3H-pyrimidin-4-one], the melting point was 212 to 216 °C (dec.).

For `Cc1nc(N2CCC(c3ccc(F)cc3)CC2)c([N+](=O)[O-])c(=O)[nH]1` [Example 7, 6-[4-(4-Fluoro-phenyl)-piperidin-1-yl]-2-methyl-5-nitro-3H-pyrimidin-4-one], the melting point was 218 to 221 °C (dec.).

The term IC50 denotes the concentration at which inhibition is half-maximal. The low end stands for greater potency in that assay, the high end for weaker potency in that assay. In the case of `Cc1nc(N2CCN(c3ccc(F)cc3)CC2)c([N+](=O)[O-])c(=O)n1CCO` [Example 8-1, 6-[4-(4-fluoro-phenyl)-piperazin-1-yl]-3-(2-hydroxy-ethyl)-2-methyl-5-nitro-3H-pyrimidin-4-one], the IC50 at rat mGluR1a receptor came to 42 nM.

As to `Cc1nc(OCCO)c([N+](=O)[O-])c(N2CCN(c3ccc(F)cc3)CC2)n1` [Example 8-2, 2-{6-[4-(4-fluoro-phenyl)-piperazin-1-yl]-2-methyl-5-nitro-pyrimidin-4-yloxy}-ethanol], the IC50 on rat mGluR1a receptor was 58 nM. The IC50 values of the last two molecules are within 1.5-fold of each other.

For the molecule `CCn1c(C)nc(N2CCN(c3ccc(F)cc3)CC2)c([N+](=O)[O-])c1=O` [Example 10-1, 3-ethyl-6-[4-(4-fluoro-phenyl)-piperazin-1-yl]-2-methyl-5-nitro-3H-pyrimidin-4-one], the IC50 at rat mGluR1a receptor was 49 nM.

Take `N#Cc1c(NCCO)nc(NCCO)nc1N1CCN(c2ccccc2F)CC1` [Example 20, 4-[4-(2-Fluoro-phenyl)-piperazin-1-yl]-2,6-bis-(2-hydroxy-ethylamino)-pyrimidine-5-carbonitrile]: the IC50 at rat mGluR1a receptor is 290 nM.

The molecule `CSc1ccccc1N1CCN(c2nc(NCCO)nc(NCCO)c2C#N)CC1` [Example 25, 2,4-Bis-(2-hydroxy-ethylamino)-6-[4-(2-methylsulfanyl-phenyl)-piperazin-1-yl]-pyrimidine-5-carbonitrile] returned an IC50 at rat mGluR1a receptor of 350 nM.

As for `N#Cc1c(NCCO)nc(NCCO)nc1N1CCN(c2ccccc2[N+](=O)[O-])CC1` [Example 29, 2,4-Bis-(2-hydroxy-ethylamino)-6-[4-(2-nitro-phenyl)-piperazin-1-yl]-pyrimidine-5-carbonitrile], the IC50 at rat mGluR1a receptor came to 750 nM.

Regarding `N#Cc1c(NCCO)nc(NCCO)nc1N1CCC(c2ccc(F)cc2)CC1` [Example 32, 4-[4-(4-Fluoro-phenyl)-piperidin-1-yl]-2,6-bis-(2-hydroxy-ethylamino)-pyrimidine-5-carbonitrile], the IC50 at rat mGluR1a receptor is 700 nM.

`N#Cc1c(NCCO)nc(NCCO)nc1N1CC=C(c2ccc(F)cc2)CC1` [Example 35, 4-[4-(4-Fluoro-phenyl)-3,6-dihydro-2H-pyridin-1-yl]-2,6-bis-(2-hydroxy-ethylamino)-pyrimidine-5-carbonitrile] had an IC50 on rat mGluR1a receptor of 390 nM.

Take `N#Cc1c(NCCO)nc(NCCO)nc1N1CCC(C#N)(c2ccccc2)CC1` [Example 37, 4-(4-cyano-4-phenyl-piperidin-1-yl)-2,6-bis-(2-hydroxy-ethylamino)-pyrimidine-5-carbonitrile]: the IC50 at rat mGluR1a receptor was 1800 nM.

For the molecule `N#Cc1c(NC2CC2)nc(NC2CC2)nc1N1CCN(c2ccccc2)CC1` [Example 38, 2,4-Bis-cyclopropylamino-6-(4-phenyl-piperazin-1-yl)-pyrimidine-5-carbonitrile], the IC50 at rat mGluR1a receptor was found to be 64 nM.

As for `N#Cc1c(NCc2ccccn2)nc(NCc2ccccn2)nc1N1CCN(c2ccccc2)CC1` [Example 40, 4-(4-Phenyl-piperazin-1-yl)-2,6-bis-[(pyridin-2-ylmethyl)-amino]-pyrimidine-5-carbonitrile], the IC50 on rat mGluR1a receptor was determined as 1500 nM.

Molecule `N#Cc1c(NCCO)nc(NC2CC2)nc1N1CCN(c2ccccc2)CC1` [Example 47, 2-cyclopropylamino-4-(2-hydroxy-ethylamino)-6-(4-phenyl-piperazin-1-yl)-pyrimidine-5-carbonitrile] showed an IC50 on rat mGluR1a receptor of 33 nM.

Consider `N#Cc1c(NCCO)nc(NCc2cccnc2)nc1N1CCN(c2ccccc2)CC1` [Example 49, 4-(2-Hydroxy-ethylamino)-6-(4-phenyl-piperazin-1-yl)-2-[(pyridin-3-ylmethyl)-amino]-pyrimidine-5-carbonitrile], for which the IC50 at rat mGluR1a receptor is 150 nM.

Molecule `N#Cc1c(NCCO)nc(NCc2cccnc2)nc1N1CCC(c2ccccc2)CC1` [Example 54, 4-(2-Hydroxy-ethylamino)-6-(4-phenyl-piperidin-1-yl)-2-[(pyridin-3-ylmethyl)-amino]-pyrimidine-5-carbonitrile] showed an IC50 at rat mGluR1a receptor of 30 nM.

Regarding `N#Cc1c(OCC(F)(F)F)nc(NCCO)nc1N1CCC(c2ccccc2)CC1` [Example 60, 2-(2-Hydroxy-ethylamino)-4-(4-phenyl-piperidin-1-yl)-6-(2,2,2-trifluoro-ethoxy)-pyrimidine-5-carbonitrile], the IC50 at rat mGluR1a receptor was 36 nM. This IC50 and that of the molecule before are within 1.5-fold of each other.

`N#Cc1c(Cl)nc(NCC2CC2)nc1N1CCN(c2ccccc2)CC1` [Example 63, 4-chloro-2-(cyclopropylmethyl-amino)-6-(4-phenyl-piperazin-1-yl)-pyrimidine-5-carbonitrile] had an IC50 at rat mGluR1a receptor of 25 nM.

In the case of `N#Cc1c(Cl)nc(NCCO)nc1N1CCC(c2ccc(F)cc2)CC1` [Example 68, 4-chloro-6-[4-(4-fluoro-phenyl)-piperidin-1-yl]-2-(2-hydroxy-ethylamino)-pyrimidine-5-carbonitrile], the IC50 at rat mGluR1a receptor was 140 nM. Compared with the last molecule, the IC50 is about 5.6-fold higher.

On to `CSc1nc(N)nc(N2CCN(c3ccc(F)cc3)CC2)c1C#N` [Example 70, 2-amino-4-[4-(4-fluoro-phenyl)-piperazin-1-yl]-6-methylsulfanyl-pyrimidine-5-carbonitrile], for which the IC50 at rat mGluR1a receptor is 210 nM.

In turn, `CSc1nc(N)nc(N2CCC(c3ccc(F)cc3)CC2)c1C#N` [Example 73, 2-Amino-4-[4-(4-fluoro-phenyl)-piperidin-1-yl]-6-methylsulfanyl-pyrimidine-5-carbonitrile] came in with an IC50 at rat mGluR1a receptor of 159 nM.

On rat mGluR1a receptor, `CCc1nc(N2CCN(c3ccccc3)CC2)c(C#N)nc1C` [Example 75-2, 6′-ethyl-5′-methyl-4-phenyl-3,4,5,6-tetrahydro-2H-[1,2′]bipyrazinyl-3′-carbonitrile] registered an IC50 of 23 nM.

In turn, `CCc1c(C)nc(N2CCN(c3ccc(F)cc3)CC2)c(C#N)[n+]1[O-]` [Example 79-1, 5′-ethyl-4-(4-fluoro-phenyl)-6′-methyl-4′-oxy-3,4,5,6-tetrahydro-2H-[1,2′]bipyrazinyl-3′-carbonitrile] gave an IC50 on rat mGluR1a receptor of 25 nM.

The molecule `CCc1nc(N2CCN(c3ccc(F)cc3)CC2)c(C#N)[n+]([O-])c1C` [Example 79-2, 6′-ethyl-4-(4-fluoro-phenyl)-5′-methyl-4′-oxy-3,4,5,6-tetrahydro-2H-[1,2′]bipyrazinyl-3′-carbonitrile] displayed an IC50 at rat mGluR1a receptor of 210 nM.

`N#Cc1nnc(NCCO)nc1N1CC=C(c2ccccc2)CC1` [Example 84, 3-(2-Hydroxy-ethylamino)-5-(4-phenyl-3,6-dihydro-2H-pyridin-1-yl)-[1,2,4]triazine-6-carbonitrile] came in with an IC50 on rat mGluR1a receptor of 660 nM.
